Measured values taken from ChEMBL document CHEMBL1137843, “N-4-Substituted-benzyl-N'-tert-butylbenzyl thioureas as vanilloid receptor ligands: investigation on the role of methanesulfonamido group in antagonistic activity” (Bioorg Med Chem Lett, 2004).

Target: T1, Vanilloid receptor (Rattus norvegicus, UniProt Q9ERZ8+Q9WUD2+O35433)
Assay: In vitro agonist activity, increased [Ca2+] influx, at vanilloid receptor of rat dorsal root ganglia (partial at 30 uM)
Type: functional

EC50 [µM] | SMILES
> 30 | CC(C)(C)c1ccc(C/N=C(\S)NCc2ccc(NC(=N)S)cc2)cc1
> 30 | CC(C)(C)c1ccc(C/N=C(\S)NCc2ccc(O)cc2)cc1

Target: T1, Vanilloid receptor
Assay: In vitro antagonist activity at the vanilloid receptor in rat DRG neurons.
Type: functional

SMILES | IC50 [µM]
CCS(=O)(=O)Nc1ccc(C/N=C(\S)NCc2ccc(C(C)(C)C)cc2)cc1 | 1.3
Oc1cc2c(cc1O)CN(C(=S)NCCc1ccc(Cl)cc1)CCC2 [CAPSAZEPINE] | 0.65
CN(c1ccc(C/N=C(\S)NCc2ccc(C(C)(C)C)cc2)cc1)S(C)(=O)=O | 2.5
CC(C)(C)c1ccc(C/N=C(\S)NCc2ccc(C(F)(F)F)cc2)cc1 | 12.4
COc1cc(C/N=C(\S)NCc2ccc(C(C)(C)C)cc2)ccc1OS(C)(=O)=O | 0.3
CC(C)S(=O)(=O)Nc1ccc(C/N=C(\S)NCc2ccc(C(C)(C)C)cc2)cc1 | 3.8
CC(C)(C)c1ccc(C/N=C(\S)NCc2ccc(NS(=O)(=O)Cc3ccccc3)cc2)cc1 | 1.5
CN(C)S(=O)(=O)Nc1ccc(C/N=C(\S)NCc2ccc(C(C)(C)C)cc2)cc1 | 14.6
CC(C)(C)c1ccc(C/N=C(\S)NCc2ccc(NS(=O)(=O)C(F)(F)F)cc2)cc1 | 12.4
CCCCS(=O)(=O)Nc1ccc(C/N=C(\S)NCc2ccc(C(C)(C)C)cc2)cc1 | 4.1

The next lines start with the values.

IC50 [µM] | SMILES
2.5 | CNS(=O)(=O)Nc1ccc(C/N=C(\S)NCc2ccc(C(C)(C)C)cc2)cc1
1 | CC(C)(C)c1ccc(C/N=C(\S)NCc2ccc(NS(N)(=O)=O)cc2)cc1
11.7 | CC(C)(C)c1ccc(C/N=C(\S)NCc2ccc(NS(=O)(=O)CC(F)(F)F)cc2)cc1
4.5 | CCCS(=O)(=O)Nc1ccc(C/N=C(\S)NCc2ccc(C(C)(C)C)cc2)cc1
9.3 | CC(C)(C)c1ccc(C/N=C(\S)NCc2ccc(OS(C)(=O)=O)cc2)cc1

Target: T1, Vanilloid receptor
Assay: In vitro agonist activity, increased [Ca2+] influx, at vanilloid receptor of rat dorsal root ganglia
Type: functional

EC50 [µM] | SMILES
7 | CC(C)(C)c1ccc(C/N=C(\S)NCc2ccc(N)cc2)cc1

Target: T1, Vanilloid receptor
Assay: In vitro antagonist activity at vanilloid receptor in rat dorsal root ganglia (partial at 30 uM)
Type: functional

IC50 [µM] | SMILES
> 30 | CC(C)(C)c1ccc(C/N=C(\S)NCc2ccc(NC(=N)S)cc2)cc1
> 30 | CC(C)(C)c1ccc(C/N=C(\S)NCc2ccc(NS(=O)(=O)c3cccs3)cc2)cc1
> 30 | CC(C)(C)c1ccc(C/N=C(\S)NCc2ccc([N+](=O)[O-])cc2)cc1
